Measured values published in patent publication US10947242B2, “[1,2,4]triazolo[1,5and#8208;A]pyrimidine compounds as PDE2 inhibitors” (Janssen Pharmaceutica NV, priority 2016, dated 2021).
“And” between values parts separate entries of the source, which are not always exact repeats. Equal values may be shown once. Read-outs that look alike come from different tables or passages of the source.

Assays:
[1] = molecular target: T1, Rat recombinant PDE10A (rPDE10A2) (Rattus norvegicus, UniProt Q9QYJ6); experiment: In vitro assay PDE10A, rat clone (SPA, 3H-cAMP hydrolysis); type: biochemical; details: for IC50: read-out: rPDE10A2 pIC50 (converted)
T1 construct: His tag (inferred from metal chelate purification); made in house; host or cells: Sf9 insect cells (baculovirus)
T1 sequence (Q9QYJ6 1-794): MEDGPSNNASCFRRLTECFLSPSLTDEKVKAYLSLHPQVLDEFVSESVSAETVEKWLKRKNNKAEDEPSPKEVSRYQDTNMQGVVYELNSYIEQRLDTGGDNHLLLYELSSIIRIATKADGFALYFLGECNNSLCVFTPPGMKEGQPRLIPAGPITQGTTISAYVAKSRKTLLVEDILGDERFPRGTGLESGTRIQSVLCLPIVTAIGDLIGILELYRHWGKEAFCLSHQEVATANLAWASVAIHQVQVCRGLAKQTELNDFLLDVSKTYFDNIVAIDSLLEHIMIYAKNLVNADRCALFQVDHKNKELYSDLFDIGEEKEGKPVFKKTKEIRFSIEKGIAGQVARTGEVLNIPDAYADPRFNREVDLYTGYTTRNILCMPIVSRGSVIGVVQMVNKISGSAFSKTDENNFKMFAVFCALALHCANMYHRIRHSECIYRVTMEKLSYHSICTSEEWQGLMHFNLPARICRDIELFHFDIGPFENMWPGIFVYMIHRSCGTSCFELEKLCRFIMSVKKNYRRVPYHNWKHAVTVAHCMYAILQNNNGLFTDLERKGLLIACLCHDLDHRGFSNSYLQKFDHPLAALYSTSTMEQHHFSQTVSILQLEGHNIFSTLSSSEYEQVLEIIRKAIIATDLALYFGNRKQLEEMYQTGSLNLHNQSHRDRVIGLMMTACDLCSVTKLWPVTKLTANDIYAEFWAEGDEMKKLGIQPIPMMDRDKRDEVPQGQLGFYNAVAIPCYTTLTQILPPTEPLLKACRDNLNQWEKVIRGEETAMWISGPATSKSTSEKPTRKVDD
Method: Rat recombinant PDE10A (rPDE10A2) was expressed in Sf9 cells using a recombinant rPDE10A baculovirus construct. Cells were harvested after 48 h of infection and the rPDE10A protein was purified by metal chelate chromatography on Ni-sepharose 6FF. Tested compounds were dissolved and diluted in 100% DMSO to a concentration 100 fold of the final concentration in the assay. Human recombinant PDE10A ([…]) was expressed in Sf9 cells using a recombinant hPDE10A baculovirus that was made and amplified in house. Cells were harvested after 72 h of infection and the hPDE10A protein was purified by metal chelate chromatography on Ni-sepharose. Compound dilutions (0.4 μl) were added in 384 well plates to 20 μl of incubation buffer (50 mM Tris pH 7.8, 8.3 mM MgCl2, 1.7 mM EGTA). 10 μl of rPDE10A or hPDE10A enzyme in incubation buffer was added and the reaction was started by addition of 10 μl substrate to a final concentration of 60 nM cAMP and 0.008 μCi ^3H-cAMP. The reaction was incubated for 60 minutes at room temperature. After incubation, the reaction was stopped with 20 μl of stop solution consisting of 17.8 mg/ml PDE SPA (scintillation proximity assay) beads. After sedimentation of the beads during 30 minutes the radioactivity was measured in a Perkin Elmer Topcount scintillation counter and results were expressed as cpm. For blanc values the enzyme was omitted from the reaction and replaced by incubation buffer. Control values were obtained by addition of a final concentration of 1% DMSO instead of compound. A best fit curve is fitted by a minimum sum of squares method to the plot of % of control value subtracted with blanc value versus compound concentration and the half maximal inhibitory concentration (IC50) value is derived from this curve.

[2] = molecular target: T2, Human recombinant PDE2A (hPDE2A) (Homo sapiens, UniProt O00408); experiment: In vitro assay PDE2A (SPA, 3H-cGMP hydrolysis); type: biochemical; details: for IC50: read-out: hPDE2A pIC50 (converted); for Emax: read-out: hPDE2A Emax
T2 construct: His tag (inferred from metal chelate purification); made in house; host or cells: Sf9 insect cells (baculovirus)

[3] = molecular target: T3, Human recombinant PDE3A (hPDE3A) (Homo sapiens, UniProt Q14432); experiment: In vitro assay PDE3A (SPA, 3H-cAMP hydrolysis); type: biochemical; details: for IC50: hPDE3B pIC50, read-out: pIC50 (converted); for Emax: read-out: hPDE3B Emax, read-out: Emax;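 as to all read-outs here: the method names PDE3A and the table heading PDE3B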
T3 construct: purchased Scottish Biomedical; host or cells: Sf9 insect cells
Method in brief: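 Radiometric SPA measuring [3H]-cAMP hydrolysis (0.4 μM cAMP, 2.4 μCi/ml) over 60 min at room temperature, in Tris pH 7.8 buffer with MgCl2 and EGTA, 1% DMSO. Enzyme: recombinant human brain PDE3A expressed in Sf9 cells, used as partially purified lysate. Counts compared with enzyme-free blanks and vehicle controls.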

[4] = molecular target: T4, Human recombinant PDE10A (hPDE10A) (Homo sapiens, UniProt Q9Y233); experiment: In vitro assay PDE10A, human clone (SPA, 3H-cAMP hydrolysis); type: biochemical; details: human clone (h), default; for Emax: read-out: hPDE10A2 Emax; for IC50: read-out: hPDE10A2 pIC50 (converted)
T4 construct: His tag (inferred from metal chelate purification); made in house; host or cells: Sf9 insect cells (baculovirus)
Method in brief: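 Hydrolysis of 3H-cAMP (60 nM cAMP, 0.008 μCi tracer) proceeded for 60 min at room temperature, with the product detected by SPA bead scintillation counting. The enzyme was hPDE10A from baculovirus-infected Sf9 cells in Tris pH 7.8 buffer with MgCl2 and EGTA, and compounds were at 1% DMSO final. Blanks lacked enzyme.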

[5] = tested on: hippocampal Shaffer collateral-CA1 synapses; details: for Basal synaptic transmission, change versus vehicle-treated control during baseline pre-tetanus: urethane-anesthetized rats, SC-CA1 fEPSP slope; for Enduring (>2 h) synaptic potentiation after HFS (fEPSP slope, % of pre-tetanus baseline): vehicle level 119±4%; for fEPSP slope at 0-30 min after completion of the tetanization: vehicle level 139±1%
[6] = molecular target: T5, PDE2A (Rattus norvegicus, UniProt Q01062); experiment: PDE2 occupancy by test compounds, ex-vivo autoradiography with [3H]B-17a; type: in vivo, Male Wistar rats; details: route PO (oral)
T5 construct: Twenty μm-thick striatal sections were cut; from tissue; host or cells: rat brain, striatal sections
T5 sequence (Q01062 1-928): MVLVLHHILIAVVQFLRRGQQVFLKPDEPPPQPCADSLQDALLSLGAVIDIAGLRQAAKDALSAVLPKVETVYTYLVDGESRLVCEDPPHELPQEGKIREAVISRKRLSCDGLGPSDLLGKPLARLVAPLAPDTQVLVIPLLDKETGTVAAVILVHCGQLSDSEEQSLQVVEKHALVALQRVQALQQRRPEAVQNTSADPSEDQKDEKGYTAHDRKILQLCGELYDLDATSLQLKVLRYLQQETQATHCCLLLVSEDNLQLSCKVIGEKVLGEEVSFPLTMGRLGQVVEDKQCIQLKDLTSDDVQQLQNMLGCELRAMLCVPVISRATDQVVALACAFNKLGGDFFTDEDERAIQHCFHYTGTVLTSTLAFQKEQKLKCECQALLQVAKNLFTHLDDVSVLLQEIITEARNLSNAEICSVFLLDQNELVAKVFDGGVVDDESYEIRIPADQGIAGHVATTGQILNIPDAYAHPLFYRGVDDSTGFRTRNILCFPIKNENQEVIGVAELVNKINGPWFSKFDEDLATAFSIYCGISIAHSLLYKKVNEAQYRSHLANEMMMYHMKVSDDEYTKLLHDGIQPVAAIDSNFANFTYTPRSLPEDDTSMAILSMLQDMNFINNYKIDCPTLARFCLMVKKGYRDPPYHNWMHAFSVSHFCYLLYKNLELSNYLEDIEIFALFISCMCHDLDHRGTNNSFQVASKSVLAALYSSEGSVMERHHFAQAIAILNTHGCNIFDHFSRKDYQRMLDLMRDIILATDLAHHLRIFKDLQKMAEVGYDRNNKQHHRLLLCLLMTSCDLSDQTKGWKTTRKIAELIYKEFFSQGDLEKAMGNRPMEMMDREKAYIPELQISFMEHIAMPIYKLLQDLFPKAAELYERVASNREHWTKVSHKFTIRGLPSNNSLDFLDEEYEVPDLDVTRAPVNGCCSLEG

[7] = human recombinant PDE2A, 10 μM cGMP substrate

T2 sequence (O00408 whole entry): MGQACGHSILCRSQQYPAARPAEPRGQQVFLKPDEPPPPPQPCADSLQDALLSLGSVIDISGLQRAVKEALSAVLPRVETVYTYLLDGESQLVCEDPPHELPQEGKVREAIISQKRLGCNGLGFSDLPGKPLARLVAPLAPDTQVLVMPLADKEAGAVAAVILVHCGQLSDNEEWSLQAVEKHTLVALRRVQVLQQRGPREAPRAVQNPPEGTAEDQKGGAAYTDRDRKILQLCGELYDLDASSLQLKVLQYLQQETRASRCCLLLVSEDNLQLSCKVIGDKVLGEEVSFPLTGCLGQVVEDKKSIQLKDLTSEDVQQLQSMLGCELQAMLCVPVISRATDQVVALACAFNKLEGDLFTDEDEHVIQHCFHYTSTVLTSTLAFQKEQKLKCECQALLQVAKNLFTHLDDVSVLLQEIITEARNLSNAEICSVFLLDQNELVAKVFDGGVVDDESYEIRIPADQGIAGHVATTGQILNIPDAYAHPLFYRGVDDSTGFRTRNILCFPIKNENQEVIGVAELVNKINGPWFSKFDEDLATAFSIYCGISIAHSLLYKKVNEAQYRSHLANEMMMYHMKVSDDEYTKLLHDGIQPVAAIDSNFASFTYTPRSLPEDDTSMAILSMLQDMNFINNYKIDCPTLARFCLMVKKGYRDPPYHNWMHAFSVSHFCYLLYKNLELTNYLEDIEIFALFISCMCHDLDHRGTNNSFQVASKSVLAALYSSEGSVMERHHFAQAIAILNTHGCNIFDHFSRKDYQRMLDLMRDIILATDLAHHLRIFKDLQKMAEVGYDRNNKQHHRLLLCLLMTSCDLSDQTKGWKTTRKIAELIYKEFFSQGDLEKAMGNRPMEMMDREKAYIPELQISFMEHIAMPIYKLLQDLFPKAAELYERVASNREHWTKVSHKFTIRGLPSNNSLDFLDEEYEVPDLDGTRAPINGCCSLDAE
T3 sequence (Q14432 whole entry): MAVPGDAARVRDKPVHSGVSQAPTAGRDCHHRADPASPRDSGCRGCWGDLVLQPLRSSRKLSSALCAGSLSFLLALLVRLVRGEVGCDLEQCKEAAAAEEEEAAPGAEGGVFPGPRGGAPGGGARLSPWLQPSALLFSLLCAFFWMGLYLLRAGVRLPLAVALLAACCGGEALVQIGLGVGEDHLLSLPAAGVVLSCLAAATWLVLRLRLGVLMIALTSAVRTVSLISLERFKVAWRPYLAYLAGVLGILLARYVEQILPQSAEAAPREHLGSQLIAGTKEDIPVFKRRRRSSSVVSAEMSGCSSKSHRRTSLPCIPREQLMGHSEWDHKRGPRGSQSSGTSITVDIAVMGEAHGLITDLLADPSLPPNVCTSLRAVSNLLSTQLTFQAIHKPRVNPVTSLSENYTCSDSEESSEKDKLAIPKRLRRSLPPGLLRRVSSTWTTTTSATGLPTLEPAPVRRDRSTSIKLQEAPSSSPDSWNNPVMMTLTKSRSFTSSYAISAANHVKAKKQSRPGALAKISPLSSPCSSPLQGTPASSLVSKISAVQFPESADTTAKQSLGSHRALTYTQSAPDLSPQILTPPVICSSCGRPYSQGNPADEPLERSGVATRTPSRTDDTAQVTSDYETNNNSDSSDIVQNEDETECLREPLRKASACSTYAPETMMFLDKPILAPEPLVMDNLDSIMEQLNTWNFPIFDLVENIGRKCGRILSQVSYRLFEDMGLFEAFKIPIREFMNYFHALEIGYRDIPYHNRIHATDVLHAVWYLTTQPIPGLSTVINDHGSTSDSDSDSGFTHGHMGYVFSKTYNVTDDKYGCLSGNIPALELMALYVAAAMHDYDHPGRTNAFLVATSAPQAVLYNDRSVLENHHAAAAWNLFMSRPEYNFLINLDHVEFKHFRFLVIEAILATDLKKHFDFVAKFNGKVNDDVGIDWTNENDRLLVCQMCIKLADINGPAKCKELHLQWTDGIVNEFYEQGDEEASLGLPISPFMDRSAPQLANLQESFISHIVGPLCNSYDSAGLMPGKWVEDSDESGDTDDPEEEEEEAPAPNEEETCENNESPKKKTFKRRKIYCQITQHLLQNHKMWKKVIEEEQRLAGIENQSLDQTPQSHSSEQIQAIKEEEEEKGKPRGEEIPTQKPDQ
T4 sequence (Q9Y233 267-1055): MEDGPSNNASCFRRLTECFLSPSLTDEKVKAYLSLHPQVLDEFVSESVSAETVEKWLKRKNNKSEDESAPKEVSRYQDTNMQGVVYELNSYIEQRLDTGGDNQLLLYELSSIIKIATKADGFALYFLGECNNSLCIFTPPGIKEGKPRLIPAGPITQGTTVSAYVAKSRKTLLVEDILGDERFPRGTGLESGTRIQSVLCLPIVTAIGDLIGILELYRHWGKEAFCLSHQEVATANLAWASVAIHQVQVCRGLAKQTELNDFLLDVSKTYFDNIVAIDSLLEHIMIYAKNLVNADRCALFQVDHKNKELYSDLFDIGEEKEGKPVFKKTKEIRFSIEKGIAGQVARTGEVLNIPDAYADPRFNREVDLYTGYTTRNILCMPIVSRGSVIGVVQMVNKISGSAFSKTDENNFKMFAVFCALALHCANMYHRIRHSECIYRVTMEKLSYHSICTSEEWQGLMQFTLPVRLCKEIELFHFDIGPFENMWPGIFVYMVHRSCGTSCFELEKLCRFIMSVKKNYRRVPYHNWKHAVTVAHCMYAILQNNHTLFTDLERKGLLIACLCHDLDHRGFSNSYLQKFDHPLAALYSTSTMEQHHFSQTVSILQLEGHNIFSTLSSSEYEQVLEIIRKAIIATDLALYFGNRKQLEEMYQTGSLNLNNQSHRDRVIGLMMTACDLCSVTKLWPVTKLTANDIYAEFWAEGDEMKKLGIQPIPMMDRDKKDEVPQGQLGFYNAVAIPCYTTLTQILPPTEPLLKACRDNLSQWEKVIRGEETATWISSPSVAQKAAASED

melting point	Emax ([1]; rat clone (r))	IC50 ([1]; rat clone (r))	rPDE10A2 pIC50 ([1]; rat clone, indicated as (r))	IC50 [2, 7]	Emax ([2]; human recombinant PDE2A)	Emax [2]	IC50 [2]	IC50 [3]	Emax [3]	Compound	Emax [4]	IC50 [4]	also measured
204.03 °C	14%	> 10000 nM	<5 (r)	955 nM	48%	48%	955 nM	> 10000 nM	41%	CC(=O)N1CCc2cc(C(=O)N3CCC[C@@](C)(c4cc(C(F)F)nc5ncnn45)C3)ccc21 (single isomer, unassigned) [Compound 203]			
181.11 °C				0.355 nM	101%	101%	0.355 nM	7080 nM	58%	C[C@@H]1CCN(C(=O)c2ccc3nccn3c2)C[C@H]1c1cc(C(F)F)nc2ncnn12 [Compound 40]	97%	123 nM	rPDE10A2 pIC50 ([1]; rat clone (r)): 7.1 (r); Emax ([1]; rat clone, indicated as (r)): 96%; IC50 ([1]; rat clone, indicated as (r)): 79.4 nM
140.14 °C	-1%	3090 nM	5.51 (r)	646 nM	61%	61%	646 nM	> 10000 nM	24%	CC1(c2cc(C(F)F)nc3ncnn23)CCCN(C(=O)c2ccc3occc3c2)C1 (stereo not shown) [Compound 201]			
78.65 °C	4%	> 10000 nM	<5 (r)	2690 nM	30%	30%	2690 nM	> 10000 nM	18%	CC1(c2ccnc3ncnn23)CCCN(C(=O)c2ccc3occc3c2)C1 (stereo not shown) [Compound 202]	38%	> 10000 nM	

Compound	melting point	Emax ([1]; rat clone (r))	IC50 ([1]; rat clone (r))	rPDE10A2 pIC50 ([1]; rat clone, indicated as (r))	IC50 [2, 7]	Emax ([2]; human recombinant PDE2A)	Emax [2]	IC50 [2]	IC50 [3]	Emax [3]	Emax [4]	IC50 [4]	also measured
C[C@@H]1CCN(C(=O)c2ccc3occc3c2)C[C@H]1c1cc(C(F)F)nc2ncnn12 [Compound 97]		99%	34.7 nM	7.46 (r)							101%	53.7 nM	
COc1cc(C(=O)N2CC[C@@H](C)[C@H](c3cc(C(F)F)nc4ncnn34)C2)cc(C)n1 [Compound 110]					0.955 nM	101%	100%	1.32 nM	3390 nM	76%	98%	72.4 nM and 112 nM	Basal synaptic transmission, change versus vehicle-treated control during baseline pre-tetanus ([5]; 20 mg/kg subcutaneous): +8%; Enduring (>2 h) synaptic potentiation after HFS (fEPSP slope, % of pre-tetanus baseline) ([5]; 20 mg/kg subcutaneous): 137±8%; fEPSP slope at 0-30 min after completion of the tetanization ([5]; 20 mg/kg subcutaneous, p<0.05): 153±5%; Basal synaptic transmission, change versus vehicle-treated control during baseline pre-tetanus ([5]; 40 mg/kg subcutaneous): 9%; fEPSP at 90-120 min after tetanization ([5]; 40 mg/kg subcutaneous, vehicle level 106±13%, p<0.05): 129±5%; fEPSP at 60-90 min after tetanization ([5]; 40 mg/kg subcutaneous, vehicle level 116±9, p<0.05): 137±5%; Enduring (>2 h) synaptic potentiation after HFS (fEPSP slope, % of pre-tetanus baseline) ([5]; 40 mg/kg subcutaneous): 142±5%; fEPSP at 30-60 min after tetanization ([5]; 40 mg/kg subcutaneous, vehicle level 125±6, p<0.05): 146±6%; fEPSP slope at 0-30 min after completion of the tetanization ([5]; 40 mg/kg subcutaneous, p<0.05): 155±4%; Overall effect on basal synaptic transmission and LTP in vivo ([5]; 20 and 40 mg/kg subcutaneous, anesthetized rats): facilitates basal synaptic transmission and LTP in vivo; Slope of the SC-CA1 path fEPSPs across the I/O curves (excitability of CA1 cells) ([5]; 20 and 40 mg/kg versus vehicle, FIG. 16b, c): No differences; receptor occupancy at 10 mg/kg ([6]; po, 10 mg/kg, percentage receptor occupancy, ex-vivo autoradiography, striatum): 75%; ED50 ([6]; drug dose producing 50% receptor occupancy, read-out: PDE Occupancy ED50): 8.3 mg/kg
